Data taken from ChEMBL document CHEMBL5634115, “Exploring novel anticancer pyrazole benzenesulfonamides featuring tail approach strategy as carbonic anhydrase inhibitors” (Eur J Med Chem, 2023).

Experiments:
Assay in all cases: cells
K562 = format: functional; conditions: Homo sapiens, time 48 hrs
Description: Growth inhibition of human K562 cells measured after 48 hrs by sulforhodamine B assay

SR [1] = format: functional; conditions: Homo sapiens, time 48 hrs
Description: Growth inhibition of human SR cells measured after 48 hrs by sulforhodamine B assay

A549 [2] = format: functional; conditions: Homo sapiens, time 48 hrs
Description: Growth inhibition of human A549 cells measured after 48 hrs by sulforhodamine B assay

EKVX = format: functional; conditions: Homo sapiens, time 48 hrs
Description: Growth inhibition of human EKVX cells measured after 48 hrs by sulforhodamine B assay

NCI-H23 = format: functional; conditions: Homo sapiens, time 48 hrs
Description: Growth inhibition of human NCI-H23 cells measured after 48 hrs by sulforhodamine B assay

NCI-H322M = format: functional; conditions: Homo sapiens, time 48 hrs
Description: Growth inhibition of human NCI-H322M cells measured after 48 hrs by sulforhodamine B assay

HCC 2998 [3] = format: functional; conditions: Homo sapiens, time 48 hrs
Description: Growth inhibition of human HCC 2998 cells measured after 48 hrs by sulforhodamine B assay

HCT-15 [4] = format: functional; conditions: Homo sapiens, time 48 hrs
Description: Growth inhibition of human HCT-15 cells measured after 48 hrs by sulforhodamine B assay

SW-620 = format: functional; conditions: Homo sapiens, time 48 hrs
Description: Growth inhibition of human SW620 cells measured after 48 hrs by sulforhodamine B assay

SF-295 [5] = format: functional; conditions: Homo sapiens, time 48 hrs
Description: Growth inhibition of human SF-295 cells measured after 48 hrs by sulforhodamine B assay

LOX IMVI [6] = format: functional; conditions: Homo sapiens, time 48 hrs
Description: Growth inhibition of human LOX IMVI cells measured after 48 hrs by sulforhodamine B assay

Malme-3M = format: functional; conditions: Homo sapiens, time 48 hrs
UACC-257 = format: functional; conditions: Homo sapiens, time 48 hrs
Description: Growth inhibition of human UACC-257 cells measured after 48 hrs by sulforhodamine B assay

OVCAR-8 = format: functional; conditions: Homo sapiens, time 48 hrs
Description: Growth inhibition of human OVCAR-8 cells measured after 48 hrs by sulforhodamine B assay

NCI/ADR-RES = format: functional; conditions: Homo sapiens, time 48 hrs
Description: Growth inhibition of human NCI/ADR-RES cells measured after 48 hrs by sulforhodamine B assay

A498 = format: functional; conditions: Homo sapiens, time 48 hrs
Description: Growth inhibition of human A498 cells measured after 48 hrs by sulforhodamine B assay

RXF 393 = format: functional; conditions: Homo sapiens, time 48 hrs
Description: Growth inhibition of human RXF 393 cells measured after 48 hrs by sulforhodamine B assay

SN12C = format: functional; conditions: Homo sapiens, time 48 hrs
Description: Growth inhibition of human SN12C cells measured after 48 hrs by sulforhodamine B assay

PC-3 [7] = format: functional; conditions: Homo sapiens, time 48 hrs
Description: Growth inhibition of human PC-3 cells measured after 48 hrs by sulforhodamine B assay

DU-145 = format: functional; conditions: Homo sapiens, time 48 hrs
Description: Growth inhibition of human DU-145 cells measured after 48 hrs by sulforhodamine B assay

BT-549 [8] = format: functional; conditions: Homo sapiens, time 48 hrs
Description: Growth inhibition of human BT-549 cells measured after 48 hrs by sulforhodamine B assay

T47D [9] = format: functional; conditions: Homo sapiens, time 48 hrs
Description: Growth inhibition of human T47D cells measured after 48 hrs by sulforhodamine B assay

MDA-MB-468 = format: functional; conditions: Homo sapiens, time 48 hrs
Description: Growth inhibition of human MDA-MB-468 cells measured after 48 hrs by sulforhodamine B assay

CCRF-CEM [10] = format: functional; conditions: Homo sapiens, time 48 hrs
Description: Cytostatic activity against human CCRF-CEM cells assessed as total growth inhibition measured after 48 hrs by sulforhodamine B assay

A549 [11] = format: functional; conditions: Homo sapiens, time 48 hrs; remark: listed apart in the source
Description: Cytostatic activity against human A549 cells assessed as total growth inhibition measured after 48 hrs by sulforhodamine B assay

NCI-H460 [12] = format: functional; conditions: Homo sapiens, time 48 hrs
Description: Cytostatic activity against human NCI-H460 cells assessed as total growth inhibition measured after 48 hrs by sulforhodamine B assay

NCI-H522 = format: functional; conditions: Homo sapiens, time 48 hrs
Description: Cytostatic activity against human NCI-H522 cells assessed as total growth inhibition measured after 48 hrs by sulforhodamine B assay

HT-29 = format: functional; conditions: Homo sapiens, time 48 hrs
Description: Cytostatic activity against human HT-29 cells assessed as total growth inhibition measured after 48 hrs by sulforhodamine B assay

KM12 = format: functional; conditions: Homo sapiens, time 48 hrs
Description: Cytostatic activity against human KM12 cells assessed as total growth inhibition measured after 48 hrs by sulforhodamine B assay

SF-539 [13] = format: functional; conditions: Homo sapiens, time 48 hrs
Description: Cytostatic activity against human SF-539 cells assessed as total growth inhibition measured after 48 hrs by sulforhodamine B assay

SNB-19 = format: functional; conditions: Homo sapiens, time 48 hrs
Description: Cytostatic activity against human SNB-19 cells assessed as total growth inhibition measured after 48 hrs by sulforhodamine B assay

SNB-75 = format: functional; conditions: Homo sapiens, time 48 hrs
Description: Cytostatic activity against human SNB-75 cells assessed as total growth inhibition measured after 48 hrs by sulforhodamine B assay

LOX IMVI [14] = format: functional; conditions: Homo sapiens, time 48 hrs; remark: listed apart in the source
Description: Cytostatic activity against human LOX IMVI cells assessed as total growth inhibition measured after 48 hrs by sulforhodamine B assay

SK-MEL-28 = format: functional; conditions: Homo sapiens, time 48 hrs
Description: Cytostatic activity against human SK-MEL-28 cells assessed as total growth inhibition measured after 48 hrs by sulforhodamine B assay

ACHN = format: functional; conditions: Homo sapiens, time 48 hrs
Description: Cytostatic activity against human ACHN cells assessed as total growth inhibition measured after 48 hrs by sulforhodamine B assay

UO-31 = format: functional; conditions: Homo sapiens, time 48 hrs
Description: Cytostatic activity against human UO-31 cells assessed as total growth inhibition measured after 48 hrs by sulforhodamine B assay

PC-3 [15] = format: functional; conditions: Homo sapiens, time 48 hrs; remark: listed apart in the source
Description: Cytostatic activity against human PC-3 cells assessed as total growth inhibition measured after 48 hrs by sulforhodamine B assay

CCRF-CEM [16] = conditions: Homo sapiens, 48 h, read-out: LC50
Description: Cytotoxicity activity against human CCRF-CEM cells assessed as reduction in cell growth measured after 48 hrs by sulforhodamine B assay

MOLT-4 = conditions: Homo sapiens, MOLT-4, 48 h, read-out: LC50
Description: Cytotoxicity activity against human MOLT-4 cells assessed as reduction in cell growth measured after 48 hrs by sulforhodamine B assay

RPMI-8226 = conditions: Homo sapiens, RPMI-8226, 48 h, read-out: LC50
Description: Cytotoxicity activity against human RPMI-8226 cells assessed as reduction in cell growth measured after 48 hrs by sulforhodamine B assay

SR [17] = conditions: Homo sapiens, 48 h, read-out: LC50
Description: Cytotoxicity activity against human SR cells assessed as reduction in cell growth measured after 48 hrs by sulforhodamine B assay

HOP-62 = conditions: Homo sapiens, HOP-62, 48 h, read-out: LC50
Description: Cytotoxicity activity against human HOP-62 cells assessed as reduction in cell growth measured after 48 hrs by sulforhodamine B assay

NCI-H460 [18] = conditions: Homo sapiens, NCI-H460, 48 h, read-out: LC50
Description: Cytotoxicity activity against human NCI-H460 cells assessed as reduction in cell growth measured after 48 hrs by sulforhodamine B assay

HCC 2998 [19] = conditions: Homo sapiens, HCC 2998, 48 h, read-out: LC50
Description: Cytotoxicity activity against human HCC 2998 cells assessed as reduction in cell growth measured after 48 hrs by sulforhodamine B assay

HCT-15 [20] = conditions: Homo sapiens, HCT-15, 48 h, read-out: LC50
Description: Cytotoxicity activity against human HCT-15 cells assessed as reduction in cell growth measured after 48 hrs by sulforhodamine B assay

SF-295 [21] = conditions: Homo sapiens, SF-295, 48 h, read-out: LC50
Description: Cytotoxicity activity against human SF-295 cells assessed as reduction in cell growth measured after 48 hrs by sulforhodamine B assay

SF-539 [22] = conditions: Homo sapiens, SF-539, 48 h, read-out: LC50
Description: Cytotoxicity activity against human SF-539 cells assessed as reduction in cell growth measured after 48 hrs by sulforhodamine B assay

U-251 = conditions: Homo sapiens, U-251, 48 h, read-out: LC50
Description: Cytotoxicity activity against human U-251 cells assessed as reduction in cell growth measured after 48 hrs by sulforhodamine B assay

OVCAR-3 = conditions: Homo sapiens, OVCAR-3, 48 h, read-out: LC50
Description: Cytotoxicity activity against human OVCAR-3 cells assessed as reduction in cell growth measured after 48 hrs by sulforhodamine B assay

TK-10 = conditions: Homo sapiens, TK-10, 48 h, read-out: LC50
Description: Cytotoxicity activity against human TK-10 cells assessed as reduction in cell growth measured after 48 hrs by sulforhodamine B assay

MCF7 = conditions: Homo sapiens, MCF7, 48 h, read-out: LC50
Description: Cytotoxicity activity against human MCF7 cells assessed as reduction in cell growth measured after 48 hrs by sulforhodamine B assay

BT-549 [23] = conditions: Homo sapiens, BT-549, 48 h, read-out: LC50
Description: Cytotoxicity activity against human BT-549 cells assessed as reduction in cell growth measured after 48 hrs by sulforhodamine B assay

T47D [24] = conditions: Homo sapiens, 48 h, read-out: LC50
Description: Cytotoxicity activity against human T47D cells assessed as reduction in cell growth measured after 48 hrs by sulforhodamine B assay

CCOC(=O)c1ccc(N/N=C/c2cn(-c3ccc(S(N)(=O)=O)cc3)nc2-c2ccc(C)cc2)cc1
GI50 (K562): 2.88 µM
GI50 (SR [1]): 2.65 µM
GI50 (A549 [2]): 4.07 µM
GI50 (EKVX): 3.17 µM
GI50 (NCI-H23): 3.26 µM
GI50 (NCI-H322M): 5.38 µM
GI50 (HCC 2998 [3]): 2.05 µM
GI50 (HCT-15 [4]): 1.87 µM
GI50 (SW-620): 3.66 µM
GI50 (SF-295 [5]): 6.92 µM
GI50 (LOX IMVI [6]): 1.71 µM
GI50 (Malme-3M): 7.32 µM
GI50 (UACC-257): 13.2 µM
GI50 (OVCAR-8): 5.68 µM
GI50 (NCI/ADR-RES): 2.94 µM
GI50 (A498): 7.62 µM
GI50 (RXF 393): 1.97 µM
GI50 (SN12C): 16 µM
GI50 (PC-3 [7]): 3.13 µM
GI50 (DU-145): 5.06 µM
GI50 (BT-549 [8]): 10.8 µM
GI50 (T47D [9]): 3.89 µM
GI50 (MDA-MB-468): 3.51 µM
TGI (CCRF-CEM [10]): 57.4 µM
TGI (A549 [11]): 4.07 µM
TGI (NCI-H460 [12]): 2.43 µM
TGI (NCI-H522): 2.07 µM
TGI (HT-29): 8.38 µM
TGI (KM12): 4.59 µM
TGI (SF-539 [13]): 8.03 µM
TGI (SNB-19): 28.1 µM
TGI (SNB-75): 46.4 µM
TGI (LOX IMVI [14]): 3.15 µM
TGI (SK-MEL-28): 19.6 µM
TGI (ACHN): 24.3 µM
TGI (UO-31): 14.8 µM
TGI (PC-3 [15]): 38.1 µM
CC50 (CCRF-CEM [16]): > 100 µM
CC50 (MOLT-4): > 100 µM
CC50 (RPMI-8226): > 100 µM
CC50 (SR [17]): > 100 µM
CC50 (HOP-62): > 100 µM
CC50 (NCI-H460 [18]): > 100 µM
CC50 (HCC 2998 [19]): 8.71 µM
CC50 (HCT-15 [20]): 9.53 µM
CC50 (SF-295 [21]): 74.3 µM
CC50 (SF-539 [22]): 35 µM
CC50 (U-251): > 100 µM
CC50 (OVCAR-3): 62.6 µM
CC50 (TK-10): > 100 µM
CC50 (MCF7): > 100 µM
CC50 (BT-549 [23]): > 100 µM
CC50 (T47D [24]): > 100 µM
